Test results from article PMC10009755, “Discovery and Characterization of BAY-805, a Potent and Selective Inhibitor of Ubiquitin-Specific Protease USP21” (Journal of Medicinal Chemistry, 2023).
≈ marks a conversion by molar mass, not a printed value. Where two headings read alike, the source gives them in different places.

Tests used:
log D measurement (HPLC) = type: physicochemical; settings: reverse-phase HPLC, pH 7.5, pH 7.5, HPLC method; read-out: logD7.5
Procedure: log D values at pH 7.5 were recorded using an indirect method for determining hydrophobicity constants by reverse-phase HPLC. A series of compounds with well-known log D values were used for calibration. Test compounds were injected into the same HPLC system. The lipophilicity of compounds was then assessed by comparison to the calibration curve.

Aqueous solubility = type: physicochemical; settings: PBS pH 6.5, pH 6.5, PBS pH 6.5
Procedure: Test compounds were applied as DMSO solutions or directly from powder. After the addition of the buffer, solutions were shaken at rt for 24 h. The undissolved material was removed by filtration or centrifugation. The compound dissolved in the supernatant was quantified by HPLC-UV or HPLC-MS/MS.

in vitro = in vitro ADME; settings: human, Caco-2, pH 7.2
Procedure: Caco-2 cells [purchased from the German Collection of Microorganisms and Cell Cultures (DSMZ)] were seeded at a density of 4.5 × 10^4 cells/well on 24-well insert plates [0.4 μm pore size, 0.3 cm^2 (Costar)] and grown for 13–15 days in DMEM medium supplemented with 10% fetal calf serum (FCS), 1% GlutaMAX (100×, Gibco), 100 U/mL penicillin, 100 μg/mL streptomycin (Gibco), and 1% nonessential amino acids (100×, Thermo Fischer Scientific). […] The medium was changed every 2–3 days.
The bidirectional transport assay for the evaluation of Caco-2 permeability was undertaken in 24-well insert plates using a robotic system (Tecan). Before the assay was run, the culture medium was replaced by a transport medium (FCS-free HEPES carbonate transport buffer pH 7.2). For the assessment of monolayer integrity, the transepithelial electrical resistance (TEER) was measured. Only monolayers with a TEER of at least 400 Ω·cm^2 were used. Test compounds were pre-dissolved in DMSO and added either to the apical or basolateral compartment at a final concentration of 2 μM. The evaluation was performed in triplicate. […] The efflux ratio (ER) basolateral (B) to apical (A) was calculated by dividing Papp B–A by Papp A–B.

NF-κB activation = assay: NF-κB reporter assay; type: cell-based; settings: HEK293T cells, up to 10 μM
Procedure: Yang and colleagues reported that USP21 inhibition induces NF-κB activation by preventing deubiquitination of RIP1.[15] K63 ubiquitinated RIP1 is required for NF-κB activation, and thus USP21-mediated deubiquitination of RIP1 shuts down the NF-κB pathway.
Four hours after replating, cells were treated with compounds or DMSO (note: DMSO concentrations were kept consistent across all cells). Promega Dual-Luciferase Reporter Assay kit was then used to prepare samples for Firefly and Renilla signal measurement on a CLARIOstar microplate reader (BMG) 20 h after compound treatment. Relative luciferase units were calculated by normalizing the Firefly signal to the background Renilla signal, followed by normalization to DMSO controls of wild-type USP21.

[1] = molecular target: T1, C-terminal HiBiT-tagged USP21 (Homo sapiens, UniProt Q9UK80); assay: USP21 HiBiT CETSA; type: cell-based; settings: 49 °C, HEK293T cells
T1 construct: expressed in transfected cells; host or cells: HEK293T
T1 sequence (Q9UK80 1-565): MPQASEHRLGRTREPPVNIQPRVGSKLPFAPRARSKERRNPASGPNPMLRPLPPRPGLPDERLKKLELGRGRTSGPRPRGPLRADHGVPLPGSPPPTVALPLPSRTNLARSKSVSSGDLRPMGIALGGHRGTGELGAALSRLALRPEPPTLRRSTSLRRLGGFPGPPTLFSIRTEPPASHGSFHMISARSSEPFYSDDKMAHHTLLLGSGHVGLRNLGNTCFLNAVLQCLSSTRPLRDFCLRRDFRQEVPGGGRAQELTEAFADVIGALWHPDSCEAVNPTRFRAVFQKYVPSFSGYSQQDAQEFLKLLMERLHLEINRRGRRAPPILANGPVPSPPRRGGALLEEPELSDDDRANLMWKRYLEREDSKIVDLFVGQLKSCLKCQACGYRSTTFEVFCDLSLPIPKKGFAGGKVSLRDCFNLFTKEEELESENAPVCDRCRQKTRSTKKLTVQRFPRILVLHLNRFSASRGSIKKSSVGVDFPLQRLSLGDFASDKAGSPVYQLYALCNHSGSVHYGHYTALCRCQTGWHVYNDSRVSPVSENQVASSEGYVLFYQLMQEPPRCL
Procedure: In particular, we utilized a HiBiT CETSA assay format[42],[43] conducted in intact HEK293T cells. Cells were transfected with USP21 fused to a small proluminescent NanoLuc HiBiT tag, which, when complemented with the Large BiT NanoLuc fragment, produces a quantifiable luminescence signal.
HEK293T cells were seeded in a six-well plate at 8 × 10^5 cells/well in 2 mL of DMEM supplemented with 10% FBS, penicillin (100 U/mL), and streptomycin (100 μg/mL) and transfected 4 h after seeding using an X-tremeGENE HP transfection reagent, following the manufacturer’s instructions with a total of 2 μg of plasmid constructs (C-terminally tagged USP21 HiBiT and empty pCDNA3.1 vector). […] The breathable paper adhesive film was then replaced with a PCR adhesive film, and cells were heated at indicated temperatures in an Applied Biosystems VeritiPro thermal cycler for 3 min, followed by 3 min incubation at rt before the addition of LgBiT solution (200 nM LgBiT, 2% NP-40, protease inhibitors (Roche cOmplete, ethylenediaminetetraacetic acid (EDTA)-free Protease Inhibitor) in OptiMEM no phenol red (Gibco)) to lyse cells.

USP21 [2] = molecular target: T2, USP21 (Homo sapiens, UniProt Q9UK80)
T2 sequence (Q9UK80 1-565): T1 sequence (Q9UK80 1-565)
Procedure: The final assay volume was 6 μL. […] First, 2 μL of 1 nM USP21 (or selectivity enzyme) solution was added to the compound plate and preincubated for 15–20 min at room temperature. […] The reaction was stopped by 50 mM citric acid in 25 mM HEPES, pH 7.5, containing 0.01% BSA. […] The USP21 and USP22 were measured with five flashes and USP2 and USP7 in fly mode.

USP21 [3] = molecular target: T2, USP21; assay: biochemical
Procedure: To this end, we developed a USP21 activity assay that is based on the deubiquitination of a STING-derived peptide (a USP21-specific substrate[17],[18]) by purified recombinant human full-length USP21 using time-resolved fluorescence resonance energy transfer (TR-FRET) technology (referred to as a homogeneous time-resolved fluorescence (HTRF)-assay, for details see the Supporting Information).[39]
All substrate and enzyme solutions were diluted in an assay buffer. […] Incubation time was 15–20 min at room temperature. […] The stop solution (DUB inhibitor PR619, Abcam) was prepared in 25 mM HEPES, pH 7.5 (Alfa Aesar) containing 0.01% BSA and then left for 10 min at room temperature before filtering with a 0.2 μM PES Membrane (Thermo Fisher). The reaction was stopped with the addition of 2 μL of 200 μM PR619. […] The plates were measured on the ViewLux in screening or PHERAstar FSX in compound profiling. […] The number of flashes per well was set to 3. All of the experimental data were plotted using Genedata analysis. The Z′-factor and S/B of the assay were >0.7 and ∼2, respectively.

chromatographic logD (log D measurement (HPLC)): 3.7
solubility at 24 h (Aqueous solubility): 1.33 µM (≈ 0.691 µg/mL)
Papp A→B at 2 h, 2 µM (in vitro; 2 μM, 2 h): 3.4 ×10⁻⁶ cm/s
efflux ratio at 2 h, 2 µM (in vitro; Papp B–A / Papp A–B, read-out: Caco-2 efflux ratio (ER)): 0.7
cellular thermal stabilization of USP21 (in words) [1]: Strong thermal stabilization of USP21
IC50 (USP21 [2]): 8 nM
IC50 (USP21 [3]): 13 nM
SMILES: N#Cc1ccc(Cc2nnc(NC(=O)[C@H](NC(=O)C3(C(F)(F)F)CCCCC3)C3CCCC3)s2)cc1 [Compound 20, FC(F)(F)C1(CCCCC1)C(=O)N[C@H](C2CCCC2)C(=O)Nc3nnc(Cc4ccc(cc4)C#N)s3]
NF-κB activation (in words) (NF-κB activation): significant NF-κB activation levels
